Paper PMC12481929, “Oral delivery of teriparatide utilizing biocompatible transferrin-engineered MOF nanoparticles for osteoporosis therapy” (Materials Today Bio, 2025)

Tests used:
[1] = tested on: osteoporosis model mice (OVX); experiment: New bone formation in vivo, micro-CT of femurs; conditions: one month, M@P@T 200 μg kg^−1 oral, TRP 20 μg kg^−1 SC daily
Experimental: This study was approved by the Animal Ethics Committee of Wuhan University (ethics number WP20230395), and all animal experiments were conducted in accordance with the Regulations on the Management of Experimental Animals in China and the guidelines of the Committee for Animal Care and Use at Wuhan University. In this study, 6-week-old female C57 mice (purchased from Beijing HFK Bioscience Co., Ltd.) were randomly divided into five groups (Sham, OVX, M@P, M@P@T, and TRP SC). Bilateral ovariectomy was performed via a dorsal incision to establish an osteoporosis model. In the Sham group, the same volume of fat tissue was removed bilaterally. After surgery, the mice were regularly given penicillin and pain medication. All mice were housed in a comfortable environment at 22–25 °C and […] and had free access to food and water. The successful construction of the osteoporosis model was confirmed two months after surgery via micro–computed tomography (micro-CT).
To validate the in vivo efficacy of the NPs, we measured various bone parameters related to the formation of new bone and its internal structure using micro-CT (SkyScan 1276) following the ASBMR reporting standards. […] The efficacy of new bone formation was assessed by comparing these parameters determined from the control and treatment groups.

[2] = In vivo pharmacokinetics, serum TRP by ELISA; conditions: osteoporotic mice
Experimental: The pharmacokinetics and pharmacodynamics of M@P@T NPs were evaluated using the osteoporosis mice model. Mice were randomly divided into three experimental groups, with five mice per group: TRP SC, M@P, and M@P@T. M@P NPs (200 μg kg^−1) and M@P@T NPs (200 μg kg^−1) were administered by oral gavage, while TRP (20 μg kg^−1) was injected subcutaneously. Serum TRP concentrations were measured using an ELISA kit. Blood samples were collected at 0, 0.5, 1, 1.5, 2, 3, 6, 8, and 12 h post-administration to determine TRP concentration. The area under the serum TRP concentration−time curve (AUC) was calculated to determine the relative bioavailability of M@P@T. The pharmacokinetic parameters of M@P@T were then compared to those of TRP SC and M@P groups.

## CC[C@H](C)[C@H](NC(=O)[C@H](CCC(=O)O)NC(=O)[C@H](CO)NC(=O)[C@@H](NC(=O)[C@@H](N)CO)C(C)C)C(=O)N[C@@H](CCC(N)=O)C(=O)N[C@@H](CC(C)C)C(=O)N[C@@H](CCSC)C(=O)N[C@@H](Cc1cnc[nH]1)C(=O)N[C@@H](CC(N)=O)C(=O)N[C@@H](CC(C)C)C(=O)NCC(=O)N[C@@H](CCCCN)C(=O)N[C@@H](Cc1cnc[nH]1)C(=O)N[C@@H](CC(C)C)C(=O)N[C@@H](CC(N)=O)C(=O)N[C@@H](CO)C(=O)N[C@@H](CCSC)C(=O)N[C@@H](CCC(=O)O)C(=O)N[C@@H](CCCN=C(N)N)C(=O)N[C@H](C(=O)N[C@@H](CCC(=O)O)C(=O)N[C@@H](Cc1c[nH]c2ccccc12)C(=O)N[C@@H](CC(C)C)C(=O)N[C@@H](CCCN=C(N)N)C(=O)N[C@@H](CCCCN)C(=O)N[C@@H](CCCCN)C(=O)N[C@@H](CC(C)C)C(=O)N[C@@H](CCC(N)=O)C(=O)N[C@@H](CC(=O)O)C(=O)N[C@H](C(=O)N[C@@H](Cc1cnc[nH]1)C(=O)N[C@@H](CC(N)=O)C(=O)N[C@@H](Cc1ccccc1)C(=O)O)C(C)C)C(C)C [TRP, teriparatide]
[1]
  new bone formation (3D reconstruction): more new bone formation than the other groups
[2]; 20 μg kg^−1 SC
  time to return to the baseline level: ≤ 2 h
[2]; mouse, in vivo, 20 ug/kg, 20 μg kg^−1 SC, read-out: time of peak plasma concentration of TRP
  Tmax: 30 min
[2]; mouse, sc, 20 ug/kg, n = 5, TRP 20 µg/kg s.c., M@P and M@P@T 200 µg/kg oral, serum TRP ELISA, 0-12 h, mean ± SD
  AUC(0-t): 0.117 ± 0.0112 ng·h/mL
[2]; n = 5, relative to TRP 20 µg/kg s.c., oral 200 µg/kg
  F, relative bioavailability: 100%
